Data published in patent publication US20240173232A1, “COSMETIC COMPOSITION COMPRISING CARNITINE-SALICYLATE AS ACTIVE INGREDIENT” (LG HOUSEHOLD & HEALTH CARE LTD., priority 2021, published 2024).

Assays:
pig back skin = test: In vitro exfoliation efficacy (detached keratinocytes from pig back skin); conditions: 16 hours, n=5
Experimental: The pig back skin surface was washed with phosphate buffer saline (PBS) and then cut to a certain size. Thereafter, the stratum corneum of the pig skin was exposed and placed on a 96-well plate, 100 μl of each sample was applied, and the 96-well plate was left in a constant temperature and humidity chamber for 16 hours. Thereafter, the supernatant of each sample was mixed well with a trypan blue solution in the 96-well plate to measure the number of detached keratinocytes. In order to verify the suitability of the relative dead skin cell control efficacy evaluation method used in this study, the following method was used. […] After treating the pig skin with the sample by the method described above, the number of detached keratinocytes was counted, and the number of detached keratinocytes in PHA (DL-gluconolactone) at pH 4.0 was set to 100% to evaluate the relative exfoliation efficacy. All evaluations were made at n=5 to secure reliability through repeated results.

Raw 264.7 cells [1] = test: NO production inhibition in LPS-treated Raw 264.7 cells (GRIESS method); format: cell-based, rat; conditions: LPS 500 ng/ml
Experimental: The anti-inflammatory effect of carnitine-salicylate (CA-SA) was confirmed experimentally.
In order to evaluate the efficacy of relieving inflammation caused by external stimuli in vitro, an experiment was performed by the GRIESS method using Raw 264.7 cells (ATCC number: CRL-2788), which are rat macrophage cell line, to evaluate the inhibition of NO production after treatment with lipopolysaccharide (LPS, Sigma Aldrich, USA). […] After removing the medium and performing starvation with a serum-free medium for 12 hours, the test material was treated at 0.1 to 100 ppm for 30 minutes, and then LPS was added at a concentration of 500 ng/ml and the cells were further cultured for 18 hours. After culturing, the supernatant was taken and transferred to a 96-well plate, GRIESS reagent was added and reacted at room temperature for 15 minutes, and absorbance at 540 nm was measured using an ELISA reader.

[2] = test system: fibroblasts obtained from human skin tissue; test: MTT cytotoxicity assay, human fibroblasts; conditions: 24 hours
Experimental: (§1) The cytotoxicity of carnitine-salicylate (CA-SA) was evaluated by 3-(4,5-dimethythiazol-2-yl)-2,5-diphenyl tetrazolium bromide (MTT) assay. […] After removing the medium and adding each sample to a medium without FBS and incubating for 24 hours, the medium was removed, an MTT solution was added at a concentration of […], and reacted at 37° C. for 3 hours. The unreacted MTT solution was removed, and 100 μl of DMSO was added to dissolve the formed reaction product, and then absorbance was measured at 540 nm to confirm the cytotoxicity.
(§2) The cytotoxicity of salicylate, carnitine, and carnitine-salicylate (CA-SA) was evaluated by treating Raw 264.7 cells, which are rat macrophages, and human fibroblasts with the material. As a Raw 264.7 cell is a representative cell used to measure NO inhibitory efficacy in anti-inflammatory efficacy evaluations, its cytotoxicity was evaluated, and cytotoxicity with respect to fibroblasts was evaluated in order to confirm the toxicity that may be induced when the material is included in cosmetics and be repeatedly applied to the skin.

Raw 264.7 cells [3] = test: MTT cytotoxicity assay, Raw 264.7 cells; conditions: 24 hours
Experimental: as §1, §2

[4] = 2% (mixture 1% + 1%), pH 5.5, relative to 10% gluconolactone pH 4.0 = 100%

C[N+](C)(C)CC(O)CC(=O)[O-] (centres unmarked) [CA, 4-trimethylamino-3-hydroxybutyric acid]
Exfoliation rate (%) (pig back skin; [4]): 55.2%
inhibition at 10 ppm (Raw 264.7 cells [1]; Mus musculus, RAW264.7, 10 ppm (mixture 10 ppm + 10 ppm), 18 hours, read-out: NO inhibition rate): 0%

O=C1O[C@H](CO)[C@@H](O)[C@H](O)[C@H]1O (racemic) [Gloconolactone, DL-gluconolactone]
Exfoliation rate (%) (pig back skin; 10%, pH 4, positive control set to 100%): 100.0%
Exfoliation rate (%) (pig back skin; 10%, pH 6, relative to gluconolactone pH 4.0 = 100%): 32.0%

O=C(O)c1ccccc1O [SA, salicylate]
Exfoliation rate (%) (pig back skin; [4]): 19.2%
NO inhibition rate (Raw 264.7 cells [1]; 10 ppm (mixture 10 ppm + 10 ppm), 18 hours): 16.4%
cell viability ([2]; 50 ppm): 94.83%
cell viability ([2]; 100 ppm): 85.36%
cell viability (Raw 264.7 cells [3]; 50 ppm): 96.16%
cell viability (Raw 264.7 cells [3]; 100 ppm): 79.74%

CC(=O)O.CNC(=N)NCCC[C@H](N)C(=O)O [L-MMMA, NG-monomethyl-L-arginine acetate]
NO inhibition rate (Raw 264.7 cells [1]; positive control): 62.2%
